Seven compounds from ChEMBL document CHEMBL6153141, “Design, Synthesis, and Mechanism Study of Novel BMX Inhibitors Based on the Core of 1,3,5-Triazin-2-Amine for the Treatment of Gastric Carcinoma” (J Med Chem, 2025) can be followed below.

The source made the active and inactive calls. The rule behind the calls is not given here.

Series [1] relates to HGC-27. The series can be described thus: Anticancer activity against human HGC-27 cells assessed as inhibition of cell proliferation incubated for 72 hrs by MTT assay. In kind it is functional, cell-based. The conditions noted are these: HGC-27, 72 h. (Formazan colour is commonly taken as a measure of viable cells.)
The next series has as its system MGC-803. Briefly: Anticancer activity against human MGC-803 cells assessed as inhibition of cell proliferation incubated for 72 hrs by MTT assay. The format is functional, cell-based. The conditions noted are these: MGC-803, 72 h.
The next series relates to AGS. The series can be described thus: Anticancer activity against human AGS cells assessed as inhibition of cell proliferation incubated for 72 hrs by MTT assay. The format is functional, cell-based.
The next series concerns MDA-MB-231. The series can be described thus: Anticancer activity against human MDA-MB-231 cells assessed as inhibition of cell proliferation incubated for 72 hrs by MTT assay. The format is functional, cell-based. The note with it: MDA-MB-231, 72 h.
For another series, the system named is MCF7. The series can be described thus: Anticancer activity against human MCF7 cells assessed as inhibition of cell proliferation incubated for 72 hrs by MTT assay. The format is functional, cell-based. The note with it: MCF7, 72 h.
A further series concerns 4T1. Briefly: Anticancer activity against mouse 4T1 cells assessed as inhibition of cell proliferation incubated for 72 hrs by MTT assay. The format is functional, cell-based. The note with it: 4T1, 72 h.
The next series deals with HeLa. Briefly: Anticancer activity against human HeLa cells assessed as inhibition of cell proliferation incubated for 72 hrs by MTT assay. In kind it is functional, cell-based.
The next series deals with HONE1 cell line. Briefly: Anticancer activity against human HONE1 cell line assessed as inhibition of cell proliferation incubated for 72 hrs by MTT assay. In kind it is functional, cell-based. The conditions noted are these: HONE1, 72 h.
A further series relates to C6661. Briefly: Anticancer activity against human C666-1 cells assessed as inhibition of cell proliferation incubated for 72 hrs by MTT assay. In kind it is functional, cell-based. The conditions noted are these: C6661, 72 h.
The next series relates to HCT-116. The series can be described thus: Anticancer activity against human HCT-116 cells assessed as inhibition of cell proliferation incubated for 72 hrs by MTT assay. In kind it is functional, cell-based. The conditions noted are these: HCT-116, 72 h.
The test system of a further series is HepG2. Briefly: Anticancer activity against human HepG2 cells assessed as inhibition of cell proliferation incubated for 72 hrs by MTT assay. In kind it is functional, cell-based. The conditions noted are these: HepG2, 72 h.
The nature of series [2]: Cytotoxicity against human L02 cells assessed as inhibition of cell proliferation incubated for 72 hrs by MTT assay. In kind it is toxicity, cell-based.
Series [3] is described as follows: Cytotoxicity against H9c2 cells assessed as inhibition of cell proliferation incubated for 72 hrs by MTT assay. The format is toxicity, cell-based. The conditions noted are these: rat.
Series [4] is described as follows: Cytotoxicity against HEK293 cells assessed as inhibition of cell proliferation incubated for 72 hrs by MTT assay. In kind it is toxicity, cell-based. The conditions noted are these: human.
The nature of series [5]: Cytotoxicity against human GES1 cells assessed as inhibition of cell proliferation incubated for 72 hrs by MTT assay. In kind it is toxicity, cell-based.
Series [6] relates to HGC-27. The series can be described thus: Antitumor activity against human HGC-27 cells xenografted in female BALB/c nude mouse model assessed as reduction in tumor growth at 15 mg/kg/day, ip administered for 21 days relative to control. In kind it is functional. Set-up: scale not given: the % may be the effect or the level left. The conditions noted are these: time 21 day. A general note: A xenograft is tissue or cells of one species grown in another, often human tumour cells in immunodeficient mice.

Series [7] concerns HGC-27. Briefly: Antitumor activity against human HGC-27 cells xenografted in female BALB/c nude mouse model assessed as reduction in tumor weight at 15 mg/kg/day, ip administered for 21 days. In kind it is functional, organism-based. The conditions noted are these: time 21.0 day.
The test system of another series is A549. Briefly: cells. The conditions noted are these: Homo sapiens, A549, 72 h.
Another series deals with PC-9. Briefly: cells. The conditions noted are these: Homo sapiens, PC-9, 72 h.
The next series deals with NCI-H1975. Briefly: cells. The conditions noted are these: Homo sapiens, NCI-H1975, 72 h.
The test system of a further series is HCC827. The series can be described thus: cells. The note with it: Homo sapiens, HCC827, 72 h.
Another series deals with NCI-H460. Briefly: cells. The conditions noted are these: Homo sapiens, NCI-H460, 72 h.
The test system of a further series is DU-145. Briefly: cells. The note with it: Homo sapiens, DU-145, 72 h.
The subject of another series is PC-3. Briefly: cells. The conditions noted are these: Homo sapiens, PC-3, 72 h.
Another series deals with CWR22R. The series can be described thus: cells. The note with it: Homo sapiens, 22Rv1, 72 h.
Series [8] has as its target Tyrosine-protein kinase BTK (Homo sapiens, UniProt Q06187). The series can be described thus: Inhibition of BTK (unknown origin).

Chain of Tyrosine-protein kinase BTK (Q06187 whole entry): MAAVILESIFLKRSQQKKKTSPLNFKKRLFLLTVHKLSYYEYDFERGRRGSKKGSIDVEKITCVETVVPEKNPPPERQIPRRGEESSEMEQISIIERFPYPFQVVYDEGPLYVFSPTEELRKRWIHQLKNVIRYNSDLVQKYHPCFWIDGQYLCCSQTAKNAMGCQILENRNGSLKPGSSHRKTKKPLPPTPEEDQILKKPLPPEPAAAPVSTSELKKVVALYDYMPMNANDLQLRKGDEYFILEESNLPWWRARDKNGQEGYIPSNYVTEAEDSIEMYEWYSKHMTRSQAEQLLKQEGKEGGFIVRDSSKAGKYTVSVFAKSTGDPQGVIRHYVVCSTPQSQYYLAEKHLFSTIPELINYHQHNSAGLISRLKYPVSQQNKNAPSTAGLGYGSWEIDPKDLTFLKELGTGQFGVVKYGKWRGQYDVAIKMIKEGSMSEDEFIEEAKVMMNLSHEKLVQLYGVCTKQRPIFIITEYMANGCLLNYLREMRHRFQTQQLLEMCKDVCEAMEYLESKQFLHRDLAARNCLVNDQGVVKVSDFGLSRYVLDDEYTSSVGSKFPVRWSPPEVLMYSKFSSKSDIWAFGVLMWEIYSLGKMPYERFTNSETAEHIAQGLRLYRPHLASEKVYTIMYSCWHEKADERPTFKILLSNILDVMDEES
Description for A549: Anticancer activity against human A549 cells assessed as inhibition of cell proliferation incubated for 72 hrs by MTT assay
Description for CWR22R: Anticancer activity against human 22Rv1 cells assessed as inhibition of cell proliferation incubated for 72 hrs by MTT assay
Description for DU-145: Anticancer activity against human DU-145 cells assessed as inhibition of cell proliferation incubated for 72 hrs by MTT assay
Description for HCC827: Anticancer activity against human HCC827 cells assessed as inhibition of cell proliferation incubated for 72 hrs by MTT assay
Description for NCI-H1975: Anticancer activity against human NCI-H1975 cells assessed as inhibition of cell proliferation incubated for 72 hrs by MTT assay
Description for NCI-H460: Anticancer activity against human NCI-H460 cells assessed as inhibition of cell proliferation incubated for 72 hrs by MTT assay
Description for PC-3: Anticancer activity against human PC-3 cells assessed as inhibition of cell proliferation incubated for 72 hrs by MTT assay
Description for PC-9: Anticancer activity against human PC-9 cells assessed as inhibition of cell proliferation incubated for 72 hrs by MTT assay

On to `C=CC(=O)N1CCC[C@@H](n2nc(-c3ccc(Oc4ccccc4)cc3)c3c(N)ncnc32)C1` [IBRUTINIB], for which the IC50 (in general, the concentration that gives 50% inhibition) in the series on HGC-27 [1] worked out at 16 µM; in the series with MGC-803 it was 9.2 µM; in the series with AGS it was 10.4 µM; in the series on MDA-MB-231, 28.9 µM; with MCF7, 29.9 µM; in the series with 4T1, 9.3 µM. The IC50 in the series on HeLa was 28.1 µM; in the series with HONE1 cell line it was 24.5 µM; in the series with C6661, 17 µM; in the series with HCT-116, 17.7 µM; with HepG2 it was above 32 µM; with A549 it was 17.6 µM. The IC50 in the series with PC-9 came to 3.1 µM; in the series on NCI-H1975, 5.6 µM; in the series with HCC827 it was 0.1 µM; in the series with NCI-H460, 12.7 µM; in the series on DU-145, 5.3 µM; in the series on PC-3 it was 21.1 µM. Moreover, inhibition in the series with CWR22R was half-maximal at 26.7 µM (IC50). Further, the concentration for half-maximal inhibition (IC50) at 72 h in [2] is above 32 µM; in series [3] it was above 32 µM; in series [4], above 32 µM; in series [5], 28.6 µM. Besides, in the series on HGC-27 [6], the Activity amounted to 17.03%. The result in the series on HGC-27 [7] was Active.
`C=CS(=O)(=O)N1CCC[C@@H](Nc2nc(N)nc(Nc3ccc(OCc4ccccc4)cc3)n2)C1`: the IC50 was above 32 µM in the series on A549; above 32 µM in the series with PC-9; above 32 µM in the series on NCI-H1975; above 32 µM with HCC827; above 32 µM in the series with NCI-H460; 19 µM with DU-145. The IC50 with PC-3 and with CWR22R was above 32 µM throughout.
For `C=CS(=O)(=O)N1CC[C@@H](Nc2nc(N)nc(Nc3ccc(Oc4ccccc4)cc3)n2)C1`, the IC50 in the series with A549 is above 32 µM; in the series with PC-9, above 32 µM; with NCI-H1975 it was above 32 µM; with HCC827 it was 12.6 µM; in the series with NCI-H460, above 32 µM; in the series on DU-145 it was 22.4 µM. Besides, the IC50 in the series on PC-3 and in the series on CWR22R was above 32 µM throughout.
As for `C=CS(=O)(=O)N1CCC[C@@H](Nc2nc(N)nc(Nc3ccc(Oc4ccccc4)cc3)n2)C1`, the IC50 in the series on A549 is above 32 µM; in the series on PC-9 it was above 32 µM; with NCI-H1975, 29.8 µM; in the series with HCC827, 5.2 µM; with NCI-H460, above 32 µM; with DU-145 it was above 32 µM. The IC50 in the series with PC-3 and with CWR22R was above 32 µM each time.
For `C=CS(=O)(=O)N1CCC(CNc2nc(N)nc(Nc3ccc(Oc4ccccc4)cc3)n2)CC1`, the IC50 is above 32 µM in the series on A549; above 32 µM in the series with PC-9; above 32 µM in the series on NCI-H1975; 29.3 µM in the series with HCC827; above 32 µM in the series with NCI-H460; above 32 µM with DU-145. The IC50 in the series with PC-3 and with CWR22R was above 32 µM throughout.
For `Cn1cc(Nc2nc(N)nc(-c3cccc(-n4ccc5cc(C6CC6)ccc5c4=O)c3CO)n2)cn1`, it took 0.0042 µM to reach half-maximal inhibition in series [8] (IC50).
For the compound `C=CS(=O)(=O)N1CCC[C@@H](Nc2nc(N)nc(Nc3cccc(OCc4ccccc4)c3)n2)C1`, the IC50 came to 15.6 µM in the series with HGC-27 [1]; 13.4 µM in the series on MGC-803; 9.2 µM with AGS; 12.1 µM in the series with MDA-MB-231; 18.4 µM in the series with MCF7; 17.5 µM in the series on 4T1. In addition, the IC50 with HeLa was 14.5 µM; in the series with HONE1 cell line it was 14 µM; in the series on C6661 it was 18.9 µM; with HCT-116, 19.6 µM; in the series with HepG2 it was above 32 µM; in the series with A549, 25 µM. Also, the IC50 with PC-9 turned out to be 21.9 µM; in the series on NCI-H1975 it was 4.3 µM; with HCC827, 3 µM; in the series with NCI-H460, 14.3 µM; in the series with DU-145 it was 9.7 µM; with PC-3 it was 18.6 µM. Moreover, the IC50 in the series on CWR22R amounted to 23.7 µM. The IC50 at 72 h in series [2] is above 32 µM; in [3], above 32 µM; in [4] it was above 32 µM; in series [5], 13.9 µM.
